Source: ChEMBL document CHEMBL3885861, “Open TG-GATES”

Species: Rattus norvegicus
Experiment: Open TG-GATES - Regimen: Daily Repeat
Type: toxicity, organism-based, Sprague-Dawley
Set-up: regimen Daily Repeat, gender Male, age 6 weeks
Conditions: in vivo, po, 0 mg/kg, […], route gavage, dose level Control; for KIDNEY_L / KIDNEY_R / KIDNEY_TOTAL: tissue Kidney; for LIVER: tissue Liver; for A/G / ALP / ALT / AST / BUN / CRE / Ca / Cl / DBIL / GLC / IP / K / LDH / Na / PL / RALB / TBIL / TC / TG / TP / gamma-GTP: tissue Plasma

CCCNC(=O)NS(=O)(=O)c1ccc(Cl)cc1 [CHLORPROPAMIDE]
Lym (tissue Blood, time 28 day): 78.8%
MCH (tissue Blood, time 28 day): 19 pg
MCHC (tissue Blood, time 28 day): 32.9%
MCV (tissue Blood, time 28 day): 57.5 fL
Mono (tissue Blood, time 28 day): 2%
Neu (tissue Blood, time 28 day): 17%
PT (tissue Blood, time 28 day): 16.1 s
Plat (tissue Blood, time 28 day): 94.8 x10_4/uL
RBC (tissue Blood, time 28 day): 787.4 x10_4/ul
Ret (tissue Blood, time 28 day): 2.2%
WBC (tissue Blood, time 28 day): 103.1 x10_2/uL
KIDNEY_L (time 7 day): 1.1 g
KIDNEY_R (time 7 day): 1.1 g
KIDNEY_TOTAL (time 7 day): 2.2 g
KIDNEY_L (time 14 day): 1.2 g
KIDNEY_R (time 14 day): 1.2 g
KIDNEY_TOTAL (time 14 day): 2.4 g
KIDNEY_L (time 28 day): 1.4 g
KIDNEY_R (time 28 day): 1.4 g
KIDNEY_TOTAL (time 28 day): 2.8 g
LIVER (time 7 day): 11.6 g
LIVER (time 14 day): 13.6 g
LIVER (time 28 day): 14.6 g
A/G (time 7 day): 0.8
ALP (time 7 day): 1869.6 IU/L
ALT (time 7 day): 43.2 IU/L
AST (time 7 day): 69.4 IU/L
BUN (time 7 day): 15.4 mg/dL
CRE (time 7 day): 0.2 mg/dL
Ca (time 7 day): 10.9 mg/dL
Cl (time 7 day): 106 meq/L
DBIL (time 7 day): 0.014 mg/dL
GLC (time 7 day): 185.6 mg/dL
IP (time 7 day): 6.7 mg/dL
K (time 7 day): 4.2 meq/L
LDH (time 7 day): 97.4 IU/L
Na (time 7 day): 143 meq/L
PL (time 7 day): 154.2 mg/dL
RALB (time 7 day): 2.7 g/dL
TBIL (time 7 day): 0.036 mg/dL
TC (time 7 day): 82 mg/dL
TG (time 7 day): 105.2 mg/dL
TP (time 7 day): 5.8 g/dL
gamma-GTP (time 7 day): 1.2 IU/L
A/G (time 14 day): 0.8
ALP (time 14 day): 1479.6 IU/L
ALT (time 14 day): 44.6 IU/L
AST (time 14 day): 68.6 IU/L
BUN (time 14 day): 18.4 mg/dL
CRE (time 14 day): 0.2 mg/dL
Ca (time 14 day): 10.7 mg/dL
Cl (time 14 day): 104.2 meq/L
DBIL (time 14 day): 0.012 mg/dL
GLC (time 14 day): 194.6 mg/dL
IP (time 14 day): 7.3 mg/dL
K (time 14 day): 4.1 meq/L
LDH (time 14 day): 120 IU/L
Na (time 14 day): 143.4 meq/L
PL (time 14 day): 164 mg/dL
RALB (time 14 day): 2.8 g/dL
TBIL (time 14 day): 0.032 mg/dL
TC (time 14 day): 77.8 mg/dL
TG (time 14 day): 158.4 mg/dL
TP (time 14 day): 6.1 g/dL
gamma-GTP (time 14 day): 1 IU/L
A/G (time 28 day): 0.8
ALP (time 28 day): 1207 IU/L
ALT (time 28 day): 40.2 IU/L
AST (time 28 day): 66.8 IU/L
BUN (time 28 day): 16.2 mg/dL
CRE (time 28 day): 0.2 mg/dL
Ca (time 28 day): 10.6 mg/dL
Cl (time 28 day): 105.6 meq/L
DBIL (time 28 day): 0.01 mg/dL
GLC (time 28 day): 188.8 mg/dL
IP (time 28 day): 6.5 mg/dL
K (time 28 day): 3.8 meq/L
LDH (time 28 day): 88.4 IU/L
Na (time 28 day): 144 meq/L
PL (time 28 day): 137.6 mg/dL
RALB (time 28 day): 2.7 g/dL
TBIL (time 28 day): 0.03 mg/dL
TC (time 28 day): 65.8 mg/dL
TG (time 28 day): 122.6 mg/dL
TP (time 28 day): 6.1 g/dL
gamma-GTP (time 28 day): 1 IU/L
